“And” between values parts separate entries of the source, which are not always exact repeats. Equal entries are not always repeated. Where no end group is shown, it is not given here.
Columns and labels:
[1] = test system: NCI-H929; test: MTS viability assay, NCI-H929; assay type: cell-based; settings: Homo sapiens; NCI-H929, 48 hours
Experimental: (§1) The mitochondrial profiling assay was carried out in three steps: (1) cell preparation and counting, (2) cell permeabilization and peptide treatment, and (3) fluorescent readout (FIG. 1). Cells are suspended in Mitochondria loading Buffer with 0.005% digitonin, loaded with the cationic dye JC-1 (1 μM), and treated with 100 μM of one of the BH3 domain peptides: Bim, Bad, Noxa, and Puma. MOMP is followed by full mitochondrial membrane depolarization (ΔΨm), which is measured by treating the cells with the ionophore FCCP (p-trifluoromethoxy carbonyl cyanide phenyl hydrazone). Peptide (and FCCP) addition results in a decrease in membrane potential in suitably primed cells and is measured as a decrease in JC-1 fluorescence in a 384 well plate on a TecanGenios plate reader using an excitation of 535 nm and an emission of 590 nm.
(§2) Tables 3 and 4 show the percent priming of various cell lines, as determined by measuring the signal intensity of the JC-1 dye which is an indicator of mitochondrial depolarization. […] Viability was measured using an MTS assay. The IC50 is in μM.

[2] = test system: Mcl-1 1780; test: MTS viability assay, Mcl-1 1780; assay type: cell-based; settings: for IC50: Mcl1-1780, Mcl-1 1780, 48 hours
Experimental: as §1, §2

[3] = test system: DHL6; test: MTS viability assay, DHL6; assay type: cell-based; settings: DHL6, 48 hours
Experimental: as §1, §2

[4] = test system: LPN3; test: MTS viability assay, LPN3; assay type: cell-based; settings: LPN3, 48 hours
Experimental: as §1, §2

[5] = test system: DHL10; test: MTS viability assay, DHL10; assay type: cell-based; settings: for IC50: DHL10 (Bax/Bak deficient), 48 hours
Experimental: as §1, §2

[6] = test system: Bcl-2 1863; test: MTS viability assay, Bcl-2 1863; assay type: cell-based; settings: Bcl-2 primed cells (Bcl-2 1863)
[7] = test system: multiple myeloma; test: Patient M-protein (M-spike) response to Velcade/Bortezomib treatment; assay type: in vivo, human; design: key to Δ M-Spike: % decrease in M-protein over treatment period; settings: for Δ M-Spike: Velcade/Bortezomib combination regimen
From the text: To date, we have obtained Mitochondrial profiles from 14 multiple myeloma or plasma cell leukemia patients. Each of the samples tested came from patients treated with one of several different Velcade/Bortezomib combination regimens. The samples listed in Table 5 are viably frozen from a tissue bank or from fresh bone marrow delivered within a few hours of the biopsy. CD138 cells are purified from either source using two similar procedures that have been optimized for each respective tissue type. Profiles on frozen cells are performed immediately following purification. Profiles on fresh cells are performed immediately or on viably frozen CD138 positive cells. […] M-protein is an indication of myeloma activity and is widely used diagnostic marker of the severity of the disease. The patient M-protein response is converted to a percentage of the best response seen among the group of patients tested. The M-spike response is calculated as a percent decrease in M-protein over a given treatment period. […] The percent decrease is calculated with the following equation. The percent best response is used to normalize the data to a fixed scale where 100% is the best response and 0% is the worst response. It is calculated with the equation below. Cancer cells collected from a patient undergoing Velcade based treatment were mitochondrial profiled at three time points during the course of treatment (October 2010, January 2011, and May 2011). The profile was used to monitor the apoptotic predisposition of the CD-138 positive MM cells during treatment.

[8] = test system: OPM2/Luciferase cells; test: Tumor burden by bioluminescence imaging in xenografted mice; assay type: in vivo; settings: OPM2/Luciferase xenograft in SCID mice, velcade 1 mpk IV 3×/week, compared with vehicle-only
Experimental: Mice were injected with 75 mg/kg D-luciferin, anesthetized, and imaged 10 minutes after substrate injection. Total body luminescence was determined using a standardized region of interest encompassing the entire mouse using the Living Images software package (Caliper Life Sciences).
OPM2/Luciferase cells were transferred to SCID mice and allowed to reach tumor burden. Xenografted mice were treated with EU-5148 (20 mpk IV, 3×/week), velcade for (1 mpk IV, 3×/week), or a combination of these treatments. […] The combination treatment of EU-5148 with Velcade results in 92% reduction in tumor cell burden over same time period.

[9] = test system: NCI-H929; test: Mitochondrial profiling assay (JC-1), NCI-H929; assay type: cell-based; settings: NCI-H929, percent priming, JC-1, 100 μM peptide
Experimental: as §1, §2

[10] = test system: Mcl-1 1780; test: Mitochondrial profiling assay (JC-1), Mcl-1 1780; assay type: cell-based; settings: Mcl-1 1780, percent priming, JC-1, 100 μM peptide
Experimental: as §1, §2

[11] = test system: DHL6; test: Mitochondrial profiling assay (JC-1), DHL6; assay type: cell-based; settings: DHL6, percent priming, JC-1, 100 μM peptide
Experimental: as §1, §2

[12] = test system: LPN3; test: Mitochondrial profiling assay (JC-1), LPN3; assay type: cell-based; settings: LPN3, percent priming, JC-1, 100 μM peptide
Experimental: as §1, §2

[13] = target: BCL-XL (Homo sapiens, UniProt Q07817); test: BH3 domain binding affinities to BCL-XL
[14] = target: BCL-2 (Homo sapiens, UniProt P10415); test: BH3 domain binding affinities to BCL-2
Chain of BCL-2 (P10415 whole entry, the tested form may be a part): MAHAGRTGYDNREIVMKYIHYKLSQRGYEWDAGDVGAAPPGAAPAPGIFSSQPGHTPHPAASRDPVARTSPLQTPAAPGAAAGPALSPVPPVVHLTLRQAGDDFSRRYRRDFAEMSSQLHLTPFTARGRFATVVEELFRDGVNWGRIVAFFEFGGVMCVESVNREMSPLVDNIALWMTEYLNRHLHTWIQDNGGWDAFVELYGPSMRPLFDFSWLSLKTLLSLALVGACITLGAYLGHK

Chain of BCL-XL (Q07817 whole entry, the tested form may be a part): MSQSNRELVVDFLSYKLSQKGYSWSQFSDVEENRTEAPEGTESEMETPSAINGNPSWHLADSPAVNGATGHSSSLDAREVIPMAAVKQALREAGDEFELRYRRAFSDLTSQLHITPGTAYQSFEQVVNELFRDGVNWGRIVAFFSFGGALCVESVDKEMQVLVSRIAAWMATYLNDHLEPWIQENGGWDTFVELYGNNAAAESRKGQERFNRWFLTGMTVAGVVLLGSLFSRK

CC1(C)CCC(c2ccc(Cl)cc2)=C(CN2CCN(c3ccc(C(=O)NS(=O)(=O)c4ccc(N[C@H](CCN5CCOCC5)CSc5ccccc5)c(S(=O)(=O)C(F)(F)F)c4)cc3)CC2)C1 [ABT-263, Navitoclax]
IC50 [1]: 4000 nM
IC50 [2]: 17000 nM
cell-killing activity (in words) ([2]; Mcl-1 primed cells (Mcl-1 1780)): ineffective
IC50 [3]: < 1000 nM
IC50 [4]: 4100 nM
IC50 [5]: > 25000 nM
cell-killing activity (in words) ([5]; DHL-10 cells deficient in the Bax-Bak proteins): not responsive
cell-killing activity (in words) [6]: effective

COC1=CC(c2cc3ccccc3[nH]2)=N/C1=C\c1[nH]c(C)cc1C [Obatoclax]
IC50 [1]: 1000 nM
IC50 [2]: 1500 nM
IC50 [3]: 1200 nM
IC50 [5]: 800 nM

CC(C)C[C@H](NC(=O)[C@H](Cc1ccccc1)NC(=O)c1cnccn1)B(O)O [Velcade, Bortezomib]
Δ M-Spike ([7]; Patient No. 3039T): 64.71
Δ M-Spike ([7]; Patient No. 3098T): 62.50
Δ M-Spike ([7]; Patient No. 3161T): 12.90
Δ M-Spike ([7]; Patient No. 3187T): 65.22
Δ M-Spike ([7]; Patient No. 3188T): 93.03
Δ M-Spike ([7]; Patient No. 3191T): 57.69
Δ M-Spike ([7]; Patient No. 3201T): 87.50
Δ M-Spike ([7]; Patient No. 3213T): −10.00
Δ M-Spike ([7]; Patient No. 3221T): 52.38
M-Spike ([7]; TB# 3098T2, Jan. 27, 2011, patient undergoing Velcade based treatment): 0.8 g/dL
M-Spike ([7]; TB# 3098T3, May 5, 2011, patient undergoing Velcade based treatment): 0.3 g/dL
M-Spike ([7]; TB# 3098T, Oct. 13, 2010, patient undergoing Velcade based treatment): 1.7 g/dL
mean tumor burden reduction (in words) [8]: mean tumor burden reduction was observed

AELPPEFAAQLRKIGDKVYC [NOXA BH3, BH3 domain peptide]
Mcl-1 Priming State (NOXA Signal) [9]: 74 (HIGH) %
Mcl-1 Priming State (NOXA Signal) [10]: 75 (HIGH) % and 71 (HIGH) %
Mcl-1 Priming State (NOXA Signal) [11]: 18 (LOW) %
Mcl-1 Priming State (NOXA Signal) [12]: 58 (HIGH) %

NLWAAQRYGRELRRMSDEFVDSFK [BAD BH3]
Kd [13]: < 10 nM
Kd [14]: 11 nM
